Legend:
Type in all cases: cell-based, Staphylococcus aureus
wild-type S. aureus = test: Penicillin sensitivity assay (growth curve, OD650 nm), wild-type strain; details: 200 ng/ml (subinhibitory) added at OD650 nm of 0.5, mid-log phase
Method: (§1) Rat plays a role in regulating autolytic activity of S. aureus. […] Furthermore, inactivation of the rat locus renders the S. aureus bacteria sensitive to lysis upon growth beyond the mid-log phase. To evaluate whether the cell lysis of the rat mutant was additive to the effect of a subinhibitory concentration of penicillin, 200 ng/ml of penicillin was added to a growing culture of the rat mutant at an OD650 nm of 0.5, corresponding to the mid-log phase. […] This finding is consistent with the additive effect of penicillin upon the lytic propensity of the rat mutant late in the growth cycle. […] In comparison to the parental strain, the rat mutant with subinhibitory concentrations of penicillin has a 3-4 log kill than the parental strain with antibiotics.
(§2) Penicillin sensitivity assays were conducted by diluting rat mutant cultures grown overnight to an OD650 nm of 0.05 in TSB containing the appropriate antibiotics to maintain selection. Cultures were grown at 37° C. with shaking to reach exponential phase (OD650 nm=0.5). Penicillin G was added to a concentration of 0.1 μg/ml. Optical densities at 650 nm were measured every hour for eight to nine hours.

S. aureus rat mutant [1] = test: Plating of antibiotic-treated cultures on agar plates without antibiotic selection (kill); details: subinhibitory concentrations of penicillin; plated on agar without antibiotic selection
Method: as §1

S. aureus rat mutant [2] = test: Penicillin sensitivity assay (growth curve, OD650 nm), rat mutant; details: 200 ng/ml (subinhibitory) added at OD650 nm of 0.5, mid-log phase
Method: as §1, §2

[3] = tested on: S. aureus rat deletion mutant; test: Penicillin-induced lysis, rat deletion mutant (ACL2530); details: 100 μg penicillin (3× MIC)
Method: (§3) Similar to the rat transposon mutant, the rat deletion mutant was unable to grow to an OD650 nm of 1.7 (early-stationary).
as §2

[4] = tested on: S. aureus complemented strain (ACL2531); test: Penicillin-induced lysis, complemented strain (ACL2531); details: 100 μg penicillin (3× MIC)
Method: as §3
as §2, with “Penicillin G was added to a concentration of 0.1 μg/ml.” left out

[5] = tested on: S. aureus rat-sarA double-mutant; test: TRITON X-100-induced cell lysis, rat-sarA double mutant; details: compared with single mutants
Method: (§4) TRITON® X-100 sensitivity was determined for rat, sarA, and rat-sarA double-mutant strains.
(§5) The effect of TRITON® X-100 on growing cells was determined by diluting cultures grown overnight to an OD650 nm of 0.1 in TSB with varying concentrations of TRITON® X-100. Cells were incubated at 37° C. with shaking and the optical density was recorded hourly for seven to eight hours.
(§6) TRITON® X-100-induced autolysis assays were conducted by diluting cultures grown overnight to an OD650 nm of 0.05 in TSB containing 1 M NaCl. Cells were allowed to grow at 37° C. with shaking until an OD650 nm of 0.7 was reached. Cells were harvested, washed twice with ice cold water and then resuspended in the same volume of 0.05 M Tris-HCl, pH 7.2, containing 0.05% TRITON® X-100. Cells were incubated at 30° C. with shaking and lysis was determined by measuring absorbance at OD600 nm at 30 minutes intervals.

S. aureus rat mutant [6] = test: TRITON X-100 sensitivity, rat mutant
Method: as §4, §5, §6

S. aureus sarA mutant = test: TRITON X-100 sensitivity, sarA mutant
Method: as §4, §5, §6

Substance	optical density as the growth cycle progressed after addition of penicillin (wild-type S. aureus)	kill of rat mutant compared with the parental strain with antibiotics (S. aureus rat mutant [1])	optical density as the growth cycle progressed after addition of penicillin (S. aureus rat mutant [2])	lysis in the presence of penicillin [3]	lysis in the presence of penicillin [4]	TRITON X-100-induced cell lysis [5]	TRITON X-100 concentration at which sensitivity was displayed (S. aureus rat mutant [6])	TRITON X-100 concentration at which sensitivity was displayed (S. aureus sarA mutant)
penicillin	no increase in optical density	3-4 log	further reduction in optical density	readily lysed	behaved like wild-type	–	–	–
TRITON® X-100	–	–	–	–	–	more severe defect	≥ 0.01%	≥ 0.01%
